One data set deals with HER-1 (Homo sapiens, UniProt P00533). Put plainly: HER-1 kinase inhibition. The following applies: Table 5; read-out: HER-1, IC50 class. In kind it is biochemical.
For another data set, the target named is Cdk1/cycB (UniProt P06493). Put plainly: Cdk1/cycB kinase assay, histone H1 substrate. The class given is biochemical, starfish. The following applies: Table 5; read-out: CDK1/B, IC50 class. The essentials: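 Active Cdk1/cycB was purified from starfish oocytes arrested in M phase with 1-methyladenine, using p9CKShs-sepharose. Reactions ran 20 min at ambient temperature and were stopped with EDTA. Phosphorylated product was captured on Immobilon P membranes, washed in H3PO4 and EtOH, and counted by scintillation.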

SMILES strings stand for the structures.

Chain of HER-1 (P00533 25-1210, species assumed): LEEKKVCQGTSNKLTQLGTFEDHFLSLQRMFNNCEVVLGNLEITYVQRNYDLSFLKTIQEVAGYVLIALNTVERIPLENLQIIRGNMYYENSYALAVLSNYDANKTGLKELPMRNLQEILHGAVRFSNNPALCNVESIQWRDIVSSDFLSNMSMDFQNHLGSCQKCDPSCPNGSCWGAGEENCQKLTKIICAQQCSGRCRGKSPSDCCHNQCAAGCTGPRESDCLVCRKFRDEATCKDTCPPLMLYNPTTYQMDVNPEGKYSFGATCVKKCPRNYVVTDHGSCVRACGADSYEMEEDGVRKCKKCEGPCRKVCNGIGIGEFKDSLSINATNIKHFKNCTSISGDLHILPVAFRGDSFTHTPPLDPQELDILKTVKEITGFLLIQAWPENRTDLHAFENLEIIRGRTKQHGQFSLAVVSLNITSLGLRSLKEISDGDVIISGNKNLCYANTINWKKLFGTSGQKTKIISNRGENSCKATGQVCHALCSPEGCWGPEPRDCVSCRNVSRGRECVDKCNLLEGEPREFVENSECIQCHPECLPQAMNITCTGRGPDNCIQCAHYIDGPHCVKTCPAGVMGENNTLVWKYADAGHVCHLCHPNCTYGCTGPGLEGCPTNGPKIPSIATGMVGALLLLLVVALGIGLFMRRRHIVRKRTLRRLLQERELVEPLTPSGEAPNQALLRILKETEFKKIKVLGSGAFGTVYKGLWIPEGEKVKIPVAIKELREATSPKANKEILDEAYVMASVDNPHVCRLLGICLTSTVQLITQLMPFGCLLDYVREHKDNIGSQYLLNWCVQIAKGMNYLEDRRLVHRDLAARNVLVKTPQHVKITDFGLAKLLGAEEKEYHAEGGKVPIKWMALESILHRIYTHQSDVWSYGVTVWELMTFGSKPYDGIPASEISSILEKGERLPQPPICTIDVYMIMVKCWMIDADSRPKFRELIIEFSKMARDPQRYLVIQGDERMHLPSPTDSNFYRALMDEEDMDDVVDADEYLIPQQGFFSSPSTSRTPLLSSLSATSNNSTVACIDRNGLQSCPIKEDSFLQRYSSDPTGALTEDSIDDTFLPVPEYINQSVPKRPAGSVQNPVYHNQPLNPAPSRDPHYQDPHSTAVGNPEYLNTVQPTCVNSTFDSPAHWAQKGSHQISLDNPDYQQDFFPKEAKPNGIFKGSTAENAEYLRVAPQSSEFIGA

The melting point is the temperature, or range, at which the solid turns liquid. For `COc1ccc(-c2cnn3c(N)c(-c4cccc(Cl)c4)c(CF)nc23)cc1OC` [Example 92, 6-(3-Chloro-phenyl)-3-(3,4-dimethoxy-phenyl)-5-fluoromethyl-pyrazolo[1,5-a]pyrimidin-7-ylamine], the melting point lay within 228 to 230 °C. Besides, the IC50 at HER-1 is greater than 10 µM. In addition, the IC50 on Cdk1/cycB is greater than 10 µM.

Compound `COc1ccc(-c2cnn3c(N)c(-c4cccc(Cl)c4)c(C)nc23)cc1OC` [Example 93, 6-(3-Chloro-phenyl)-3-(3,4-dimethoxy-phenyl)-5-methyl-pyrazolo[1,5-a]pyrimidin-7-ylamine] yielded a melting point of 223 to 226 °C. Besides, the IC50 at HER-1 was greater than 10 µM. In addition, the IC50 at Cdk1/cycB is greater than 10 µM.

As for `COc1ccc(-c2cnn3c(N)c(-c4ccc(F)c(Cl)c4)c(C)nc23)cc1OC` [Example 94, 6-(3-Chloro-4-fluoro-phenyl)-3-(3,4-dimethoxy-phenyl)-5-methyl-pyrazolo[1,5-a]pyrimidin-7-ylamine], the melting point was 235 to 238 °C. For the same compound, the IC50 at HER-1 was greater than 10 µM. Besides, the IC50 on Cdk1/cycB was greater than 10 µM.

`COc1ccc(-c2cnn3c(N)c(-c4ccc(F)c(Cl)c4)c(C)nc23)cc1` [Example 95, 6-(3-Chloro-4-fluoro-phenyl)-3-(4-methoxy-phenyl)-5-methyl-pyrazolo[1,5-a]pyrimidin-7-ylamine] gave a melting point of 224 to 227 °C. Also, the IC50 on HER-1 is greater than 10 µM. For the same compound, the IC50 at Cdk1/cycB was greater than 10 µM.

`COc1ccc(-c2cnn3c(N)c(-c4ccc(F)cc4)c(C)nc23)cc1` [Example 96, 6-(4-Fluoro-phenyl)-3-(4-methoxy-phenyl)-5-methyl-pyrazolo[1,5-a]pyrimidin-7-ylamine] returned a melting point of 243 to 244 °C. Moreover, at HER-1, the IC50 lay in the range of 1 to 10 µM. Also, at Cdk1/cycB, the IC50 is greater than 10 µM.

Turning to `Cc1nc2c(-c3cccc(N4CCN(CCO)CC4)c3)cnn2c(N)c1-c1ccc(F)cc1` [Example 97, 2-(4-{3-[7-Amino-6-(4-fluoro-phenyl)-5-methyl-pyrazolo[1,5-a]pyrimidin-3-yl]-phenyl}-piperazin-1-yl)-ethanol], the melting point is 209 to 212 °C. Also, on HER-1, the IC50 was greater than 10 µM. Also, at Cdk1/cycB, the IC50 was greater than 10 µM.

With `Cc1nc2c(-c3cccc(N4CCN(C)CC4)c3)cnn2c(N)c1-c1ccc(F)c(F)c1` [Example 98, 6-(3,4-Difluoro-phenyl)-5-methyl-3-[3-(4-methyl-piperazin-1-yl)-phenyl]-pyrazolo[1,5-a]pyrimidin-7-ylamine], the melting point lay in the range of 216 to 219 °C. On HER-1, the IC50 was greater than 10 µM. Further, the IC50 on Cdk1/cycB was greater than 10 µM.

On to `COc1ccc(-c2cnn3c(N)c(-c4ccc(F)c(F)c4)c(C)nc23)cc1OC` [Example 99, 6-(3,4-Difluoro-phenyl)-3-(3,4-dimethoxy-phenyl)-5-methyl-pyrazolo[1,5-a]pyrimidin-7-ylamine], for which the melting point fell in the range of 230 to 235 °C. For the same compound, the IC50 at HER-1 is greater than 10 µM. Also, the IC50 on Cdk1/cycB is greater than 10 µM.

For the compound `Cc1nc2c(-c3cccc(N4CCN(CCO)CC4)c3)cnn2c(N)c1-c1ccc(F)c(Cl)c1` [Example 100, 2-(4-{3-[7-Amino-6-(3-chloro-4-fluoro-phenyl)-5-methyl-pyrazolo[1,5-a]pyrimidin-3-yl]-phenyl}-piperazin-1-yl)-ethanol], the melting point was 104 to 107 °C. For the same compound, at HER-1, the IC50 was greater than 10 µM. Moreover, at Cdk1/cycB, the IC50 was greater than 10 µM.

With `Cc1nc2c(-c3cccc(N4CCN(CCO)CC4)c3)cnn2c(N)c1-c1ccc(F)c(F)c1` [Example 101, 2-(4-{3-[7-Amino-6-(3,4-difluoro-phenyl)-5-methyl-pyrazolo[1,5-a]pyrimidin-3-yl]-phenyl}-piperazin-1-yl)-ethanol], the melting point lay within 172 to 174 °C. For the same compound, the IC50 on HER-1 is greater than 10 µM. Moreover, the IC50 on Cdk1/cycB was greater than 10 µM.

Regarding `Cc1nc2c(-c3cccc(N4CCC(N5CCCC5)CC4)c3)cnn2c(N)c1-c1cccc(Cl)c1` [Example 102, 6-(3-Chloro-phenyl)-5-methyl-3-[3-(4-pyrrolidin-1-yl-piperidin-1-yl)-phenyl]-pyrazolo[1,5-a]pyrimidin-7-ylamine], the melting point was 188 to 193 °C. Also, at HER-1, the IC50 is greater than 10 µM. Besides, the IC50 at Cdk1/cycB was greater than 10 µM.

On to `Cc1nc2c(-c3cccc(N4CCC(N5CCCC5)CC4)c3)cnn2c(N)c1-c1ccc(F)cc1` [Example 103, 6-(4-Fluoro-phenyl)-5-methyl-3-[3-(4-pyrrolidin-1-yl-piperidin-1-yl)-phenyl]-pyrazolo[1,5-a]pyrimidin-7-ylamine], for which the melting point is 244 to 249 °C. The IC50 at HER-1 is greater than 10 µM. The IC50 at Cdk1/cycB is greater than 10 µM.

For the origin of these results see patent US20090099167A1, “Organic compounds” (Novartis Institutes for Biomedical Research, priority 2004, published 2009).
